Reference: article PMC13047053, “Crystal structure of human INPP5K with an allosteric inhibitor reveals the structural basis for species specific potency” (Scientific Reports, 2026)
“Also recorded” adds a separate entry of the source.

Molecular target: T1, human INPP5K (Homo sapiens, UniProt Q9BT40)
T1 construct: full-length human INPP5K (amino acids 1–448, UniProt ID: Q9BT40); FLAG (N); made in house; host or cells: Expi293 cells (pcDNA3.4, transient)
T1 sequence (Q9BT40 1-448): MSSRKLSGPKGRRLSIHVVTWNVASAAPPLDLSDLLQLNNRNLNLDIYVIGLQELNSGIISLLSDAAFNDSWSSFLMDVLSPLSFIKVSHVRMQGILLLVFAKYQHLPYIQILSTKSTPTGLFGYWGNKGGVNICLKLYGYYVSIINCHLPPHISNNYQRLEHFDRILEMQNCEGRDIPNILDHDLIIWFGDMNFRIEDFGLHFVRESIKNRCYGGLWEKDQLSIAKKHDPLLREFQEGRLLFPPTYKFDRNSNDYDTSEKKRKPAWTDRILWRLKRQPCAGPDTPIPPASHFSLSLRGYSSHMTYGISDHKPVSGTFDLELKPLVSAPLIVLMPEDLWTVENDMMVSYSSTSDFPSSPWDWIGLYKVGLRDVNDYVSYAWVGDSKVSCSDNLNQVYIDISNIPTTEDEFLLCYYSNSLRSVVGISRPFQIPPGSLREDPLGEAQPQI
Assay: Inorganic phosphate detection assay for phosphatase inhibition
Assay type: biochemical
From the text: The protein purification is described in detail elsewhere. Briefly, full-length human INPP5K (amino acids 1–448, UniProt ID: Q9BT40), rat INPP5K (aa 1–446, UniProt ID: Q9R0B6), mouse INPP5K (aa 1–468, UniProt ID: Q8C5L6), hamster INPP5K (aa 1–453, UniProt ID: G3HTF6), guinea pig INPP5K (aa 1–473, UniProt ID: H0V8T7) containing an N-terminal FLAG-tag, full-length human SHIP2 (aa 1–1 258) containing a C-terminal FLAG-tag, and full-length human PIPP (amino acids 1–1 006) containing an N-terminal His8-tag were all cloned into the pcDNA3.4 expression vector and transiently expressed in Expi293 cells (Thermo Fisher Scientific). The PH domain of human TAPP1 (amino acids 180–404) containing an N-terminal GST-tag was expressed in a pGEX6P1 expression vector (GE Healthcare) in E. coli strain BL21 ((Merck KGaA, Darmstadt, Germany)), following IPTG induction at 37 °C for 5 h. All the FLAG-tagged INPP5Ks and hSHIP2 were purified using affinity columns containing DDDDK-tagged protein purification gel (MBL, Medical & Biological Laboratories Co., Ltd., Tokyo, Japan), followed by size-exclusion chromatography with Superdex 200 columns (GE Healthcare). His8-tagged hPIPP was purified using Ni–NTA Superflow (Qiagen) and Superdex 200 columns. The GST-tagged hTAPP1 domain was purified using a Glutathione Sepharose 4B (GE Healthcare) and Superdex 200 columns. The purity of the protein obtained was evaluated using SDS-PAGE.
The release of inorganic phosphate was measured using a PiPer Phosphate Assay Kit (Thermo Fisher Scientific), according to the manufacturer’s instructions, but with some modifications. Enzyme reactions were performed in a final volume of 10 µL per well in a 384-well nonbinding black plates (Greiner Bio-One International, GmbH, Kremsmünster, Austria). The reaction mixtures containing 20 µM diC8-PI(3,4,5)P₃ and each enzyme (human INPP5K, mouse INPP5K, rat INPP5K, hamster INPP5K, guinea pig INPP5K, human SHIP2, or human PIPP) in reaction buffer (50 mM Tris–HCl pH 7.0, 150 mM NaCl, 7.5 mM MgCl₂, 0.03% Igepal CA-630, 0.03% gelatin), with or without various concentrations of inhibitor, were incubated for 20 min at room temperature. The reactions were then stopped and detection reactions were initiated by adding 5 µL of detection mix 1 (60 mM EDTA, 12 U/mL maltose phosphorylase, and 0.6 mM maltose in 100 mM Tris–HCl pH 8.0). After incubation for 60 min at room temperature, 5 µL of detection mix 2 (8 U/mL glucose oxidase, 0.8 U/mL HRP, and 100 µM Amplex Red in 100 mM Tris–HCl pH 8.0) was added, and the mixture was incubated for a further 30 min at room temperature in the dark. The fluorescence generated was measured using an Envision plate reader at 531/590 nm (excitation/emission), and the percentage inhibition was calculated as described above.

CC(C)c1sc(NC(=O)c2ccccc2)c(C(=O)O)c1-c1ccccc1 [CPD-1]
IC50 (inorganic phosphate detection assay, 20 µM diC8-PI(3,4,5)P3, 20 min): 2900 nM | mode of inhibition of human INPP5K (result in words): noncompetitive inhibition; also recorded: noncompetitive inhibitor
